# Where a name gives a salt, the structure may show the parent alone.
# How the values were obtained:
# Cx43 protein = Cx43 protein expression by stereoisomer forms (immuno-(Western) blotting, 4 days); assay type: cell-based, mouse; conditions: 1×10^-5 M in 1:2 ethanol/H2O
# Description: (2) Molecular Studies. […] Briefly, mouse embryonic fibroblast C3H10T1/2 cells were cultured in Eagle's basal medium with Earle's salts (Atlanta Biologicals, Atlanta, Ga.), supplemented with 5% fetal calf serum (Atlanta Biologicals, Atlanta, Ga.) and 25 μg/mL gentamicin sulfate (Sigma, St. Louis, Mo.), and incubated at 37° C. in 5% CO2. On the 7th day after seeding in 100 millimeter (mm) dishes, the confluent cells were treated for four days with the disodium salt disuccinate astaxanthin derivatives XVI and then harvested and analyzed for Cx43 protein induction as described. Protein content was measured using the Protein Assay Reagent kit (Pierce Chemical Co., Rockford, Ill.) according to manufacturer's instructions. Cell lysates containing 100 μg of protein were analyzed by Western blotting using the NuPage western blotting kit and apparatus (Invitrogen, Carlsbad, Calif.) and Cx43 protein detected using a rabbit polyclonal antibody (Zymed, San Francisco, Calif.) raised against a synthetic polypeptide corresponding to the C-terminal domain of mouse, human and rat Cx43. Cx43 immunoreactive bands were visualized by chemiluminescence using an anti-rabbit HRP-conjugated secondary antibody (Pierce Chemical Co., Rockford, Ill.). Digital images were obtained with a cooled CCD camera, and quantitative densitometry was then performed (Bio-Rad, Richmond, Calif.).
# [1] = test system: connexin 43 protein expression; assay: Induction of connexin 43 protein expression (Western blot, 96 hours); assay type: cell-based, mouse; conditions: 96 hours
# Description: In brief, mouse embryonic fibroblast CH3/10T^1/2 cells were treated with the following formulations in a 4 mL cell culture system with media containing 2% calf serum: • 1. TTNPB [p-(E)-2-(5,6,7,8-tetrahydro-5,5,8,8-tetramethyl-2-napthyl) propenyl benzoic acid] 10^−8 M in acetone [positive control for connexin 43 upregulation (4 μL in 4 mL] • 2. Disodium salt disuccinate astaxanthin derivative XVI/H2O at 10^−5 M (40 μl in 4 mL) • 3. Disodium salt disuccinate astaxanthin derivative XVI/H2O at 10^−6 M (4 μl in 4 mL) • 4. Disodium salt disuccinate astaxanthin derivative XVI/H2O at 10^−7 M (1:10 dilution and 4 μl in 4 mL) • 5. Disodium salt disuccinate astaxanthin derivative XVI H2O/ethanol [EtOH] formulation at 10^-5 M (40 μl in 4 mL) • 6. Disodium salt disuccinate astaxanthin derivative XVI H2O/EtOH formulation at 10^−6 M (4 μl in 4 mL) • 7. Sterile H2O control (40 μl in 4 mL) • 8. Sterile H2O/EtOH control (20 μL EtOH, 20 μL H2O in 4 mL) • 9. Media control (4 mL)
# Cells were harvested after 96 hours incubation with test compounds and control solutions. All media solutions were identical in color, however after treatment with the disodium salt disuccinate astaxanthin derivative XVI at both 10^−5 dilutions, the color subjectively changed to an orange-red color. Cells treated with TTNPB appeared striated with light microscopy, evidence of differentiation to myocytes, an expected result in this cell culture system. After harvest and pelleting of cells, tubes containing both 10^−5 disodium salt disuccinate astaxanthin derivative XVI solutions were bright red; both 10^−6 dilution tubes were a pink color. As documented previously for other colored carotenoids, this was subjective evidence for cellular uptake of the test compounds.
# Cells were then lysed, and 50 μg of each protein was electrophoresed on a 10% polyacrylamide gel. The gel was then transferred to a nitrocellulose filter. Total protein was assayed with Coomassie blue staining (FIG. 29; lanes 6, 7, and 9 were smeared secondary to gel transfer, and were not included in the quantitative comparison [FIG. 31)]. […]
# C-reactive protein (CRP) = assay: Circulating C-reactive protein levels (ELISA) in croton oil-stimulated infarct model; assay type: in vivo, rabbit; conditions: 50 mg/kg IV for 4 days; 1% croton oil; sample at time of reperfusion; controls +23.5%
# Excerpt: The influence of parenteral administration of the disodium disuccinate astaxanthin derivative (XVI) on induced infarct size and induced levels of circulating C-reactive protein (CRP) in rabbits was investigated using the methods of Barrett et al. (2002) with slight modifications. The purpose of the current study was to investigate the ability of the disodium disuccinate astaxanthin derivative (XVI) to reduce inflammation as measured by CRP in the setting of experimental myocardial ischemia-reperfusion injury in the rabbit heart. […] Therefore, reduction of circulating CRP levels, together with the reduction(s) in infarct size previously noted with Cardax™ in rodents, would form a powerful anti-inflammatory therapeutic modality in the acute coronary syndrome setting.
# In brief, male New Zealand white rabbits (2.25-2.5 kg) were used for the study. The acute phase inflammatory response was induced by subcutaneous injection of four aliquots (0.5 mL each) of 1% croton oil in corn oil beginning on the second day of pre-treatment with Cardax™. Either Cardax™ (at 50 mg/kg IV by ear vein injection) in water or equal volumes of sterile saline were given once per day for 4 days prior to experimental infarction on day 5. The time course of increases in circulating CRP levels were obtained as described previously (Barret et al. 2002), using an ELISA-based method with anti-rabbit CRP antibodies. […]
smiles,measurement,setting,value
"CC1=C(/C=C/C(C)=C/C=C/C(C)=C/C=C/C=C(C)/C=C/C=C(C)/C=C/C2=C(C)C(=O)C(OC(=O)CCC(=O)O)CC2(C)C)C(C)(C)CC(OC(=O)CCC(=O)O)C1=O (racemic) [XVI, Disodium Salt of the Disuccinic Acid Ester of Astaxanthin]",rank of Cx43 induction level among derivatives,Cx43 protein,highest induction level of Cx43 of all derivatives tested
same,expression of Cx43 protein,"Cx43 protein; four days, vs 1:2 ethanol/H2O alone",increase expression of Cx43 protein
same,induction of connexin 43 protein expression,"[1]; water 10^-5 to 10^-7 M and EtOH/H2O formulations, vs water and ethanol/water controls",induced connexin 43 protein expression
same,connexin 43 induction level compared with TTNPB positive control,[1]; in water at concentrations greater than 10^-7 and in ethanol/water at 10^-5,higher inductions levels than the positive TTNPB control
same,mean change in circulating CRP levels from baseline,C-reactive protein (CRP),−15.7%

# Source: patent US7345091B2, “Carotenoid ether analogs or derivatives for the inhibition and amelioration of disease” (Cardax Pharmaceuticals, Inc., priority 2002, dated 2008)
